Key:
Assay type in all cases: cell-based
[1] = system: HCC827-YVMA cells (human ERBB2 exon20 insertion mutant A775_G776ins YVMA); assay: Cell growth inhibition (CellTiter-Glo, 3 days) in HCC827-YVMA; conditions: 72 h, 3 days after administration
Summary of the method: (§1)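 Growth inhibition used a CellTiter-Glo luminescence read-out after 3 days of compound exposure at various concentrations. Cells were plated the day before at 5000/well in RPMI plus 10% FBS. The lines are HCC827 transduced by lentivirus with codon-optimized EGFR ASV or ERBB2 YVMA exon 20 insertions.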

[2] = system: HCC827-ASV cells (human EGFR exon 20 insertion mutant A769_D770insASV); assay: Cell growth inhibition (CellTiter-Glo, 3 days) in HCC827-ASV; conditions: 72 h, 3 days after administration
Summary of the method: as §1

[3] = system: HCC827-SVD cells (human EGFR exon 20 insertion mutant D770_N771 insSVD); assay: Cell growth inhibition (CellTiter-Glo, 3 days) in HCC827-SVD; conditions: 72 h, 3 days after administration
Summary of the method: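 HCC827 cells carrying lentiviral codon-optimized EGFR D770_N771 insSVD, with endogenous EGFR knocked out by CRISPR (single clone), seeded at 5000 cells/well in RPMI with 10% FBS. Viability read by CellTiter-Glo luminescence.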

A431 cells = assay: Cell growth inhibition (CellTiter-Glo, 3 days) in A431; conditions: Homo sapiens, A-431, 72 h, 3 days after administration
Summary of the method: (§2)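 HCC827 cells in RPMI/10% FBS and A431 cells in DMEM/10% FBS were seeded at 5000 cells/well and left overnight. Compound was then added over a concentration range for 3 days of incubation, and viability was read by CellTiter-Glo luminescence.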

HCC827 cells = assay: Cell growth inhibition (CellTiter-Glo, 3 days) in HCC827; conditions: Homo sapiens, 72 h, 3 days after administration
Summary of the method: as §2

Row | GI50 [1] [nM] | GI50 [2] [nM] | GI50 [3] [nM] | GI50 (A431 cells) [nM] | GI50 (HCC827 cells) [nM] | SMILES
1 | < 30 | < 30 | 30 to 60 | ≥ 1000 | 60 to 100 | C=CC(=O)N1CCC(Nc2cc3c(Nc4ccc(Oc5ccnc(-n6cc(C)cn6)c5)cc4F)ncnc3cc2OC)CC1 [Compound 232, 1-(4-((4-((2-fluoro-4-((2-(4-methyl-1H-pyrazol-1-yl)pyridin-4-yl)oxy)phenyl)amino)-7-methoxyquinazolin-6-yl)amino)piperidin-1-yl)prop-2-en-1-one]
2 | < 30 | < 30 | 30 to 60 | ≥ 1000 | 60 to 100 | C=CC(=O)N1CCC(Nc2cc3c(Nc4ccc(Oc5ccnc(-c6ccccc6)c5)cc4F)ncnc3cc2OC)CC1 [Compound 233, 1-(4-((4-((2-fluoro-4-((2-phenylpyridin-4-yl)oxy)phenyl)amino)-7-methoxyquinazolin-6-yl)amino)piperidin-1-yl)prop-2-en-1-one]
3 | < 30 | < 30 | < 30 | 300 to 600 | 30 to 60 | C=CC(=O)N1CCC(Nc2cc3c(Nc4ccc(Oc5ccnc(NC6CCC6)c5)cc4F)ncnc3cc2OC)CC1 [Compound 243, 1-(4-((4-((4-((2-(cyclobutylamino)pyridin-4-yl)oxy)-2-fluorophenyl)amino)-7-methoxyquinazolin-6-yl)amino)piperidin-1-yl)prop-2-en-1-one]
4 | < 30 | < 30 | < 30 | ≥ 1000 | 100 to 300 | C=CC(=O)N1CCC(Nc2cc3c(Nc4ccc(Oc5ccnc(N6C[C@H](OC)[C@H](OC)C6)n5)cc4F)ncnc3cc2OC)CC1 [Compound 260, 1-(4-((4-((4-((2-((3R,4S)-3,4-dimethoxypyrrolidin-1-yl)pyrimidin-4-yl)oxy)-2-fluorophenyl)amino)-7-methoxyquinazolin-6-yl)amino)piperidin-1-yl)prop-2-en-1-one]
5 | 600 to 1000 | 600 to 1000 | 100 to 300 | 100 to 300 | 60 to 100 | C=CC(=O)N1CCC(Nc2cc3c(Nc4ccc(Oc5ccn(-c6cc(F)c(C)cn6)n5)c(Cl)c4)ncnc3cc2OC)CC1 [Example 17, 1-(4-((4-((3-chloro-4-((1-(4-fluoro-5-methylpyridin-2-yl)-1H-pyrazol-3-yl)oxy)phenyl)amino)-7-methoxyquinazolin-6-yl)amino)piperidin-1-yl)prop-2-en-1-one]
6 | < 30 | < 30 | < 30 | 100 to 300 | < 30 | C=CC(=O)N1CCC(Nc2cc3c(Nc4ccc(Oc5ccn(-c6ccc(C)nc6)n5)cc4F)ncnc3cc2OCC)CC1 [Example 18, 1-(4-((7-ethoxy-4-((2-fluoro-4-((1-(6-methylpyridin-3-yl)-1H-pyrazol-3-yl)oxy)phenyl)amino)quinazolin-6-yl)amino)piperidin-1-yl)prop-2-en-1-one]
7 | 60 to 100 | 30 to 60 | 30 to 60 | 100 to 300 | < 30 | C=CC(=O)N1CCC(Nc2cc3c(Nc4cc(Cl)c(Oc5ccn(-c6cnc(C)c(F)c6)n5)cc4F)ncnc3cc2OC)CC1 [Example 19, 1-(4-((4-((5-chloro-2-fluoro-4-((1-(5-fluoro-6-methylpyridin-3-yl)-1H-pyrazol-3-yl)oxy)phenyl)amino)-7-methoxyquinazolin-6-yl)amino)piperidin-1-yl)prop-2-en-1-one]
8 | 100 to 300 | 60 to 100 | 100 to 300 | 100 to 300 | 30 to 60 | C=CC(=O)N1CCC(Nc2cc3c(Nc4ccc(Oc5ccn(-c6cnc(C)c(F)c6)n5)c(Cl)c4)ncnc3cc2OC)CC1 [Example 20, 1-(4-((4-((3-chloro-4-((1-(5-fluoro-6-methylpyridin-3-yl)-1H-pyrazol-3-yl)oxy)phenyl)amino)-7-methoxyquinazolin-6-yl)amino)piperidin-1-yl)prop-2-en-1-one]
9 | 600 to 1000 | ≥ 1000 | ≥ 1000 | ≥ 1000 | ≥ 1000 | C=C(F)C(=O)N1CCC(Nc2cc3c(Nc4ccc(Oc5ccn(-c6cnc(C)c(F)c6)n5)cc4F)ncnc3cc2OC)CC1 [Example 23, 2-fluoro-1-(4-((4-((2-fluoro-4-((1-(5-fluoro-6-methylpyridin-3-yl)-1H-pyrazol-3-yl)oxy)phenyl)amino)-7-methoxyquinazolin-6-yl)amino)piperidin-1-yl)prop-2-en-1-one]
10 | ≥ 1000 | ≥ 1000 | ≥ 1000 | ≥ 1000 | ≥ 1000 | CC#CC(=O)N1CCC(Nc2cc3c(Nc4ccc(Oc5ccn(-c6cnc(C)c(F)c6)n5)cc4F)ncnc3cc2OC)CC1 [Example 24, 1-(4-((4-((2-fluoro-4-((1-(5-fluoro-6-methylpyridin-3-yl)-1H-pyrazol-3-yl)oxy)phenyl)amino)-7-methoxyquinazolin-6-yl)amino)piperidin-1-yl)but-2-yn-1-one]
11 | ≥ 1000 | ≥ 1000 | ≥ 1000 | ≥ 1000 | ≥ 1000 | C=C(F)C(=O)N1CCC(Nc2cc3c(Nc4ccc(Oc5ccn(-c6ccc(C)nc6)n5)cc4F)ncnc3cc2OC)CC1 [Example 25, 2-fluoro-1-(4-((4-((2-fluoro-4-((1-(6-methylpyridin-3-yl)-1H-pyrazol-3-yl)oxy)phenyl)amino)-7-methoxyquinazolin-6-yl)amino)piperidin-1-yl)prop-2-en-1-one]
12 | 30 to 60 | 30 to 60 | 30 to 60 | 100 to 300 | 60 to 100 | C=CC(=O)N1CCC(Nc2cc3c(Nc4ccc(Oc5nc(-c6ccnn6C)cs5)cc4F)ncnc3cc2OC)CC1 [Example 26, 1-(4-((4-((2-fluoro-4-((4-(1-methyl-1H-pyrazol-5-yl)thiazol-2-yl)oxy)phenyl)amino)-7-methoxyquinazolin-6-yl)amino)piperidin-1-yl)prop-2-en-1-one]
13 | 60 to 100 | 30 to 60 | 60 to 100 | ≥ 1000 | 100 to 300 | C=CC(=O)N1CCC(Nc2cc3c(Nc4ccc(Oc5ccnc(-c6ccc(C)nc6)c5)cc4F)ncnc3cc2OC)CC1 [Example 27, 1-(4-((4-((2-fluoro-4-((6′-methyl-[2,3′-bipyridin]-4-yl)oxy)phenyl)amino)-7-methoxyquinazolin-6-yl)amino)piperidin-1-yl)prop-2-en-1-one]
14 | 30 to 60 | < 30 | 30 to 60 | 100 to 300 | 100 to 300 | C=CC(=O)N1CCC(Nc2cc3c(Nc4ccc(Oc5nc(-c6cnc(OCC)nc6)cs5)cc4F)ncnc3cc2OC)CC1 [Example 28, 1-(4-((4-((4-((4-(2-ethoxypyrimidin-5-yl)thiazol-2-yl)oxy)-2-fluorophenyl)amino)-7-methoxyquinazolin-6-yl)amino)piperidin-1-yl)prop-2-en-1-one]
15 | < 30 | < 30 | < 30 | ≥ 1000 | < 30 | C=CC(=O)N1CCC(Nc2cc3c(Nc4ccc(Oc5ccn(-c6ccc(C)nn6)n5)cc4F)ncnc3cc2OC)CC1 [Example 29, 1-(4-((4-((2-fluoro-4-((1-(6-methylpyridazin-3-yl)-1H-pyrazol-3-yl)oxy)phenyl)amino)-7-methoxyquinazolin-6-yl)amino)piperidin-1-yl)prop-2-en-1-one]
